Assay results reported in patent US5654273A, “Synducin mediated modulation of tissue repair” (Children's Medical Center Corporation, priority 1994, dated 1997).
Where no end group is shown, it is not given here.

How the values were obtained:
Format in all cases: cell-based
[1] = system: cell surface syndecan-1; experiment: ELISA for cell surface syndecan-1 on NIH 3T3 cells; settings: for increase of cell surface syndecan-1: confluent NIH 3T3 cells, after 48 hr culture
Procedure: An in vitro cell culture system was used to explore the mechanism by which cell surface syndecans is induced. NIH 3T3 cells grown to confluence in serum-containing medium were exposed to potential inducers and then evaluated by ELISA for the amount of cell surface syndecan-1.
Syndecan-1 at the cell surface was determined on cells cultured in 96 well tissue culture plates by washing the cells once in Tris buffered saline (TBS) (10 mM Tris, 150 mM NaCl, pH 7.4), fixing 30 min in 2% HEPES-buffered paraformaldehyde, pH 7.4, rinsing three times in TBS and incubating the cells for 30 min in TBS, 0.1% BSA, 5% goat serum. Cells were incubated for 1 hr at room temperature with 5 μg/ml mAb 281-2 (specific for extracellular domain of syndecan-1 core protein) (M. Jalkanen, H. Nguyen, A. C. Rapraeger, N. Kurn, M. Bernfield, J. Cell Biol., 101:976 (1985)) or non-specific rat IgG2A (Zymed, San Francisco, Calif.). Cells were then rinsed 3×5 min with TBS, incubated with alkaline phosphatase conjugated goat anti-rat antibody (Caltag, San Francisco, Calif.) for 30 min, rinsed 3×5 min with TBS, and alkaline phosphatase activity determined by measuring the absorbance at 405 nm of a 1 mg/ml solution of p-nitrophenolphosphate (Sigma, St. Louis, Mo.) in 10 mM Tris, 100 mM NaCl, 5 mM MgCl pH 9.5. Linear rates of absorbance change over time were determined by an automated microplate reader (Molecular Devices, Menlo Park, Calif.). Cells were then rinsed 3× with TBS and cellular protein determined by solubilizing cells in individual wells with 20 μl of 0.1N NaOH followed by protein determination (BCA protein assay, Pierce, Rockford, Ill.).
These measurements correlated strongly over the range of syndecan-1 detected in this study (r=0.96), confirming that the ELISA assay provides a quantitative assessment of cell surface syndecan-1. […]

[2] = system: NIH-3T3 cells; experiment: Uptake and binding of iodinated PR-39
Procedure: FIG. 4 is a graph showing uptake of PR-39 by NIH-3T3 cells.
PR-39 was iodinated using the Iodogen procedure (Pierce T). The influx and efflux kinetics were calculated, accessable compartments were evaluated, and total uptake measured in NIH-3T3 cells.

[3] = system: NIH-3T3 cells; experiment: Cell permeability after PR-39 treatment (propium iodide); settings: for fluorescent cells per 20× field: confluent NIH-3T3, 60 minutes at 37° C., 50 μg/ml propium iodide
Procedure: Cell permeability after PR-39 treatment was then measured. NIH-3T3 cells were cultured to confluence on chamber slides. 0, 0.1, 0.5, 1, and 10 μM PR-39 was added to the culture medium and incubated 60 minutes at 37° C.; then 50 μg/ml propium iodide (FW 688) was added.

[4] = system: NIH-3T3 cells; experiment: Effect on cell morphology (f-actin, rhodamine phalloidin); settings: 2 μM, 72 hr, confluent NIH-3T3
Procedure: To determine the effect on cell morphology, NIH-3T3 cells were cultured to confluence on coverslips in 24 well plates. 2 μM PR-39 was added the medium and cultured for 72 hr. 2% PFA and acetone were used to fix cells and cells were stained with f-actin with rhodamine phalloidin.

[5] = system: NIH 3T3 cells; experiment: Cell number, cell protein and morphology of treated NIH 3T3 cells

Substance: RRRPRPPYLPRPRPPPFFPPRLPPRIPPGFPPRFPPRFP [PR-39]
- induction of cell surface syndecan-1 by PR-39 ([1]; NIH-3T3 cells, 43 hours): concentration dependent manner
- uptake into cells ([2]; iodinated PR-39, NIH-3T3 cells): rapidly associates with and enters NIH-3T3 cells
- saturation of uptake ([2]; radioactive PR-39, NIH-3T3 cells): reaches a saturation point
- membrane permeability change ([3]; 0.1, 0.5, 1 and 10 μM, 60 minutes at 37° C.): no large perability changes
- fluorescent cells per 20× field [3]: 2 /20× field
- change in cell morphology [4]: No change in cell morphology

Substance: PDGF-AB
- increase of cell surface syndecan-1 [1]: approximately three to four-fold
- increase of cell number [5]: about two-fold

Substance: FGF-2
- increase of cell surface syndecan-1 [1]: approximately three to four-fold
- increase of cell number [5]: about two-fold

Substance: Triton™
- fluorescent cells, percent ([3]; confluent NIH-3T3, 50 μg/ml propium iodide): 100%
- fluorescent cells per 20× field [3]: approximately 50 /20× field
